From patent US20260308145A1, “CDK2 INHIBITORS AND METHODS OF USING SAME” (Shenzhen lonova Life Science Co., Ltd., priority 2023, published 2026)

What was measured:
Type in all cases: biochemical
CDK1/cyclinB1 = target: T1, CDK1/cyclinB1 (Homo sapiens, UniProt P06493); assay: Cyclin-dependent kinase activity assay (continuous ATP coupling assay), CDK1/cyclinB1; conditions: CDK1/cyclinB1 10 nM, ATP 200 μM, Histone1 copeptide 100 μM, 15 min preincubation, pH 7.5, 1% DMSO
T1 construct: purchased Carna Biosciences 04-102
Protocol: (§1) Cyclin-dependent kinase activity assay was measured by continuous ATP coupling assay in which ADP generated by kinase catalyzed phosphorylation was converted back to ATP by consuming phosphoenolpyruvate (PEP) and NADH catalyzed by pyruvate kinase/lactate dehydrogenase (PK/LDH). The assay compositions (see, Table 1) consist of one of the kinases, including CDK1/cyclinB1, CDK2/cyclinE1, CDK4/cyclinD3, and CDK6/cyclinD3 at the designated concentration, ATP at the corresponding Km of the kinase, copeptide and the ATP coupling system of PEP, NADH and PK/LDH. The assay was conducted in a reaction buffer of 20 mM Tris (pH 7.5) with 50 mM NaCl, 0.5 mM DTT and 0.04% BSA, and results were monitored continuously by fluorescence decrease of NADH with excitation at 340 nm and emission at 460 nm. Linear regression of the resulting reaction time traces gave reaction velocities.
(§2) For inhibition assay, compounds were first serial diluted in a 1:3 ratio from 10 μM to 0.05 nM using 10× reaction buffer. One of the CDK kinase was then introduced to compounds solution and incubated for 15 min. Finally, the compositions of ATP coupling system were introduced to the resulting solution to initiate the reaction. The final reaction mixture was in 1× reaction assay buffer with 1% DMSO. The half-maximal inhibition concentrations (IC50) for compounds were determined by fitting the plots of reaction velocity against compound concentration with 4-variable IC50 equation. The inhibition constants (Ki) were determined by fitting the same plots with quadratic/Morrison equation. Data were analyzed using commercially available software Graphpad Prism.
(§3) Exemplary results are presented as calculated IC50 values. • A: IC50≤10 nM • B: IC50>10 nM and IC50<100 nM • C: IC50≥100 nM

CDK2/cyclinE1 = target: T2, CDK2/cyclinE1 (Homo sapiens, UniProt P24941); assay: Cyclin-dependent kinase activity assay (continuous ATP coupling assay), CDK2/cyclinE1; conditions: CDK2/cyclinE1 5 nM, ATP 300 μM, Rb copeptide 100 μM, 15 min preincubation, pH 7.5, 1% DMSO
T2 construct: purchased Carna Biosciences 04-165
Protocol: as §1, §2, §3

CDK4/cyclinD3 = target: T3, CDK4/cyclinD3 (Homo sapiens, UniProt P11802); assay: Cyclin-dependent kinase activity assay (continuous ATP coupling assay), CDK4/cyclinD3; conditions: CDK4/cyclinD3 60 nM, ATP 500 μM, Rb copeptide 500 μM, 15 min preincubation, pH 7.5, 1% DMSO
T3 construct: purchased Carna Biosciences 04-105
Protocol: as §1, §2, §3

CDK6/cyclinD3 = target: T4, CDK6/cyclinD3 (Homo sapiens, UniProt Q00534); assay: Cyclin-dependent kinase activity assay (continuous ATP coupling assay), CDK6/cyclinD3; conditions: CDK6/cyclinD3 25 nM, ATP 500 μM, Rb copeptide 500 μM, 15 min preincubation, pH 7.5, 1% DMSO
T4 construct: purchased Carna Biosciences 04-107
Protocol: as §1, §2, §3

T1 sequence (P06493 whole entry): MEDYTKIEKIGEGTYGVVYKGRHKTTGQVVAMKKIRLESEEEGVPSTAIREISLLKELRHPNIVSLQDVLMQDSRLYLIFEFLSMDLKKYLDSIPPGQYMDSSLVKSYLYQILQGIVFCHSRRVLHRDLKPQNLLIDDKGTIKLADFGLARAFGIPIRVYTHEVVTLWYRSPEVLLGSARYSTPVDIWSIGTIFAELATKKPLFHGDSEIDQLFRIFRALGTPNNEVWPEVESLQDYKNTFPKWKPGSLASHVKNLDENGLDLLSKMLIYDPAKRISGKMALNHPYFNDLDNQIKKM
T1 sequence (P14635 whole entry partner): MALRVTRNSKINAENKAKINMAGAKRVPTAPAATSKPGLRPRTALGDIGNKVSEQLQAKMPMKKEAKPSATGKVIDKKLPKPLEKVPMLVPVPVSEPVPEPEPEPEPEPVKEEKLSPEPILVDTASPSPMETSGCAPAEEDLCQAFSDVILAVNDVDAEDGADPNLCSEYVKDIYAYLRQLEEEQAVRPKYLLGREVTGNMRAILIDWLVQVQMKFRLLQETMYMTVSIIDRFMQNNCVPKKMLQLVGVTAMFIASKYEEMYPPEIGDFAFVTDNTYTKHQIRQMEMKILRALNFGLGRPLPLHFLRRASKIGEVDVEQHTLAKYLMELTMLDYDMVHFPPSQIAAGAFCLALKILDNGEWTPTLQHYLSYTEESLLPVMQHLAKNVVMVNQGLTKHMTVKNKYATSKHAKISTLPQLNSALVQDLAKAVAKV
T3 sequence (P11802 whole entry): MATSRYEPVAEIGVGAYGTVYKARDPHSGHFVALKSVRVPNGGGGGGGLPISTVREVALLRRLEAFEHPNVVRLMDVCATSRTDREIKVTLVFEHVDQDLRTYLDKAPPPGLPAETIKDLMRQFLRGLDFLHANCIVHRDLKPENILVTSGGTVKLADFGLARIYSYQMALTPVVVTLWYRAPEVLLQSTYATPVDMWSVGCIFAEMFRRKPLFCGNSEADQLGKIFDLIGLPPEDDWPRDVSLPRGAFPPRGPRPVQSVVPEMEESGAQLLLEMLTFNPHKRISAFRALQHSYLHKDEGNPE
T3 sequence (P30281 whole entry partner): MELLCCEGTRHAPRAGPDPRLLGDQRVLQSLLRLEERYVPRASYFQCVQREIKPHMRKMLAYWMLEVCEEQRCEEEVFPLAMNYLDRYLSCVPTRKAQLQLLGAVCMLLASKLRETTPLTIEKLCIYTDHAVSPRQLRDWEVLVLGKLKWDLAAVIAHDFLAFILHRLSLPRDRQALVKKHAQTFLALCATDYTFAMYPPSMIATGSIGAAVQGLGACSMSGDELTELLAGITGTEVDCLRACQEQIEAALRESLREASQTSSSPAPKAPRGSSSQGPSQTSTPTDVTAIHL
T4 sequence (Q00534 whole entry): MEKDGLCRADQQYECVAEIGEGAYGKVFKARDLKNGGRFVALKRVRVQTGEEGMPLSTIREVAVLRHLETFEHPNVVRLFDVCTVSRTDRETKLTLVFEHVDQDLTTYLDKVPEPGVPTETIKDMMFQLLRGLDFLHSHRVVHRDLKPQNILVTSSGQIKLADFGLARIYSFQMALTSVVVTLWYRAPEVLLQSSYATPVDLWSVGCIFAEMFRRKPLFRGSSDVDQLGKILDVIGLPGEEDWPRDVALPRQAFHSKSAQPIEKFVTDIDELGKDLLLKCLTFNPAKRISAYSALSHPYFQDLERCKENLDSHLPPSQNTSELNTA
T4 sequence (P30281 whole entry partner): as the sequence (P30281 whole entry partner) above

IC50 (CDK1/cyclinB1)	IC50 (CDK2/cyclinE1)	IC50 (CDK4/cyclinD3)	IC50 (CDK6/cyclinD3)	Compound
10 to 100 nM	≤ 10 nM	10 to 100 nM	10 to 100 nM	CNS(=O)(=O)c1ccc(Nc2ncc(C(F)(F)F)c(-n3cc(C[C@@H](C)O)cn3)n2)cc1 (single isomer, unassigned) [Example 5]
10 to 100 nM	≤ 10 nM	10 to 100 nM	10 to 100 nM	CNS(=O)(=O)c1ccc(Nc2ncc(C(F)(F)F)c(-n3cc(C[C@H](C)O)cn3)n2)cc1 (single isomer, unassigned) [Example 6]
≥ 100 nM	≥ 100 nM	10 to 100 nM	10 to 100 nM	CC(C)(O)Cc1cnn(-c2nc(N[C@@H]3CCOC[C@H]3O)ncc2C(F)(F)F)c1 (single isomer, unassigned) [Example 8]
≥ 100 nM	≥ 100 nM	≥ 100 nM	≥ 100 nM	CC(C)(O)Cc1cnn(-c2nc(N[C@H]3CCOC[C@@H]3O)ncc2C(F)(F)F)c1 (single isomer, unassigned) [Example 9]
≥ 100 nM	10 to 100 nM	≥ 100 nM	10 to 100 nM	CNS(=O)(=O)c1ccc(Nc2ncc(C(F)(F)F)c(-n3cc(C4CC4(F)F)cn3)n2)cc1 (single isomer, unassigned) [Example 52, 4-[[4-[4-(2,2-difluorocyclopropyl)pyrazol-1-yl]-5-(trifluoromethyl)pyrimidin-2-yl]amino]-N-methyl-benzenesulfonamide]
≥ 100 nM	10 to 100 nM	≥ 100 nM	≥ 100 nM	CNS(=O)(=O)c1ccc(Nc2ncc(C(F)(F)F)c(-n3cc(C4CC4(F)F)cn3)n2)cc1 (single isomer, unassigned) [Example 53, 4-[[4-[4-(2,2-difluorocyclopropyl)pyrazol-1-yl]-5-(trifluoromethyl)pyrimidin-2-yl]amino]-N-methyl-benzenesulfonamide]
≥ 100 nM	10 to 100 nM	10 to 100 nM	≥ 100 nM	CNS(=O)(=O)c1ccc(Nc2ncc(C(F)(F)F)c(-n3cc([C@@H]4CCC[C@H]4O)cn3)n2)cc1 (single isomer, unassigned) [Example 74]
≥ 100 nM	10 to 100 nM	10 to 100 nM	≥ 100 nM	CNS(=O)(=O)c1ccc(Nc2ncc(C(F)(F)F)c(-n3cc([C@H]4CCC[C@@H]4O)cn3)n2)cc1 (single isomer, unassigned) [Example 75]
≥ 100 nM	10 to 100 nM	10 to 100 nM	≥ 100 nM	CNS(=O)(=O)c1ccc(Nc2ncc(C(F)(F)F)c(-n3cc([C@@H]4CCC[C@@H]4O)cn3)n2)cc1 (single isomer, unassigned) [Example 76]
10 to 100 nM	10 to 100 nM	10 to 100 nM	≥ 100 nM	CNS(=O)(=O)c1ccc(Nc2ncc(C(F)(F)F)c(-n3cc([C@H]4CCC[C@H]4O)cn3)n2)cc1 (single isomer, unassigned) [Example 77]
≥ 100 nM	≤ 10 nM	10 to 100 nM	10 to 100 nM	CNS(=O)(=O)c1ccc(Nc2ncc(C(F)(F)F)c(-n3cc([C@@H]4CC[C@@H](O)C4)cn3)n2)cc1 (single isomer, unassigned) [Example 78]
10 to 100 nM	≤ 10 nM	10 to 100 nM	10 to 100 nM	CNS(=O)(=O)c1ccc(Nc2ncc(C(F)(F)F)c(-n3cc([C@H]4CC[C@H](O)C4)cn3)n2)cc1 (single isomer, unassigned) [Example 79]
≥ 100 nM	≤ 10 nM	10 to 100 nM	10 to 100 nM	CNS(=O)(=O)c1ccc(Nc2ncc(C(F)(F)F)c(-n3cc(C4CCOC4)cn3)n2)cc1 (single isomer, unassigned) [Example 89]
≥ 100 nM	10 to 100 nM	10 to 100 nM	10 to 100 nM	CNS(=O)(=O)c1ccc(Nc2ncc(C(F)(F)F)c(-n3cc(C4CCOC4)cn3)n2)cc1 (single isomer, unassigned) [Example 90]
10 to 100 nM	≤ 10 nM	≤ 10 nM	10 to 100 nM	CNS(=O)(=O)c1ccc(Nc2ncc(C(F)(F)F)c(-n3cc(C4CCCN4)cn3)n2)cc1 (single isomer, unassigned) [Example 92]
10 to 100 nM	≤ 10 nM	10 to 100 nM	≥ 100 nM	CNS(=O)(=O)c1ccc(Nc2ncc(C(F)(F)F)c(-n3cc(C4CCNC4)cn3)n2)cc1 (single isomer, unassigned) [Example 93]
10 to 100 nM	≤ 10 nM	10 to 100 nM	≥ 100 nM	CNS(=O)(=O)c1ccc(Nc2ncc(C(F)(F)F)c(-n3cc(C4CCN(C)C4)cn3)n2)cc1 (single isomer, unassigned) [Example 95]
10 to 100 nM	≤ 10 nM	10 to 100 nM	10 to 100 nM	CNS(=O)(=O)c1ccc(Nc2ncc(C(F)(F)F)c(-n3cc(C4CCN(C)C4)cn3)n2)cc1 (single isomer, unassigned) [Example 96]
≥ 100 nM	10 to 100 nM	10 to 100 nM	≥ 100 nM	CNS(=O)(=O)c1ccc(Nc2ncc(C(F)(F)F)c(-n3cc([C@H]4C[C@](C)(O)C4)cn3)n2)cc1 (single isomer, unassigned) [Example 104, 4-((4-(4-((1s,3s)-3-hydroxy-3-methylcyclobutyl)-1H-pyrazol-1-yl)-5-(trifluoromethyl)pyrimidin-2-yl)amino)-N-methylbenzenesulfonamide]
10 to 100 nM	10 to 100 nM	10 to 100 nM	10 to 100 nM	CNS(=O)(=O)c1ccc(Nc2ncc(C(F)(F)F)c(-n3cc([C@H]4C[C@@](C)(O)C4)cn3)n2)cc1 (single isomer, unassigned) [Example 105, 4-((4-(4-((1r,3r)-3-hydroxy-3-methylcyclobutyl)-1H-pyrazol-1-yl)-5-(trifluoromethyl)pyrimidin-2-yl)amino)-N-methylbenzenesulfonamide]
10 to 100 nM	≤ 10 nM	10 to 100 nM	10 to 100 nM	CC(O)Cc1cnn(-c2nc(NC3CCN(S(C)(=O)=O)CC3)ncc2C(F)(F)F)c1 (single isomer, unassigned) [Example 107]
≥ 100 nM	10 to 100 nM	10 to 100 nM	10 to 100 nM	CC(O)Cc1cnn(-c2nc(NC3CCN(S(C)(=O)=O)CC3)ncc2C(F)(F)F)c1 (single isomer, unassigned) [Example 108]
≥ 100 nM	10 to 100 nM	10 to 100 nM	10 to 100 nM	CC(C)(O)c1cnn(-c2nc(NC3CCN(S(C)(=O)=O)CC3)ncc2F)c1 [Example 1, 2-(1-(5-fluoro-2-((1-(methylsulfonyl)piperidin-4-yl)amino)pyrimidin-4-yl)-1H-pyrazol-4-yl)propan-2-ol]
10 to 100 nM	≤ 10 nM	10 to 100 nM	10 to 100 nM	CNS(=O)(=O)c1ccc(Nc2ncc(C(F)(F)F)c(-n3cc(CC(C)(C)O)cn3)n2)cc1 [Example 2, 4-((4-(4-(2-hydroxy-2-methylpropyl)-1H-pyrazol-1-yl)-5-(trifluoromethyl)pyrimidin-2-yl)amino)-N-methylbenzenesulfonamide]
10 to 100 nM	10 to 100 nM	10 to 100 nM	≥ 100 nM	CNS(=O)(=O)c1ccc(Nc2ncc(C(F)(F)F)c(-n3cc(CCC(C)(C)O)cn3)n2)cc1 [Example 3]
≥ 100 nM	10 to 100 nM	≥ 100 nM	≥ 100 nM	CNS(=O)(=O)c1ccc(Nc2ncc(C(F)(F)F)c(-n3ccc(CC(C)(C)O)n3)n2)cc1 [Example 4]
10 to 100 nM	≤ 10 nM	10 to 100 nM	10 to 100 nM	CC(C)(O)Cc1cnn(-c2nc(NC3CCN(S(C)(=O)=O)CC3)ncc2C(F)(F)F)c1 [Example 7]
10 to 100 nM	≤ 10 nM	10 to 100 nM	10 to 100 nM	[2H]C([2H])([2H])NS(=O)(=O)c1ccc(Nc2ncc(C(F)(F)F)c(-n3cc(CCO)cn3)n2)cc1 [Example 10]
10 to 100 nM	≤ 10 nM	≤ 10 nM	10 to 100 nM	CNS(=O)(=O)c1ccc(Nc2ncc(C(F)(F)F)c(-n3cc(C4CCCC4)cn3)n2)cc1 [Example 11, 4-((4-(4-cyclopentyl-1H-pyrazol-1-yl)-5-(trifluoromethyl)pyrimidin-2-yl)amino)-N-methylbenzenesulfonamide]
